From US20070032418A1, “Small-molecule inhibitors of angiogenin and rnases and in vivo and in vitro methods of using same” (Ambion, Inc, priority 2003, published 2007)
Like-named read-outs stand apart in the source and are kept apart here.

Biological target: angiogenin (ANG) (Homo sapiens, UniProt P03950)
Assay: Inhibition of ANG ribonucleolytic activity, HPLC assay of oligonucleotide cleavage
Type: biochemical
Description: Reaction mixtures with and without test compounds were chromatographed on a Mono Q anion-exchange column with an NaCl gradient in 10 mM Tris, pH 8. […] This information was used to calculate kcat/Km values, which were then fitted to the equation (kcat/Km)i=(kcat/Km)0/[…], where (kcat/Km)i and (kcat/Km)0 are defined as the values in the presence and absence of inhibitor, respectively, and [I] is defined as the inhibitor concentration. At least four concentrations (in a range of about 10 μM-above 100 μM) were used in the final hit confirmation in order to distinguish all true hits.
Chemical structures of selected compounds are shown in these Tables and in FIGS. 4 and 5.

[1] = inhibition of ANG-catalyzed cleavage of an RNA oligonucleotide, 20 mM Hepes, 100 mM NaCl, 37° C.

Chain of angiogenin (ANG) (P03950 25-147): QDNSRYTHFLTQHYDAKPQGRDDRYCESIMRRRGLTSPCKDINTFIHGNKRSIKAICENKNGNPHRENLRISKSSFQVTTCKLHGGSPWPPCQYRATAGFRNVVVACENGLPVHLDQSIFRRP

Ki (read-out: KI) | SMILES | other results
60 µM | O=S(=O)(O)c1ccc2c(/N=N/c3ccc(S(=O)(=O)O)c4ccccc34)c(O)c(S(=O)(=O)O)cc2c1 [Amaranth] | –
~600 µM | Nc1ccc(C(=O)Nc2ccc(C(=O)Nc3ccc4c(O)cc(S(=O)(=O)O)cc4c3)cc2)cc1 [NCI-1741] | –
14 µM | Cc1cc(-c2ccc(/N=N/c3c(N)c(S(=O)(=O)O)cc4cc(S(=O)(=O)O)ccc34)c(C)c2)ccc1/N=N/c1cc(S(=O)(=O)O)c2ccccc2c1N [NCI-7815] | –
5.5 µM | Cc1cc(-c2ccc(/N=N/c3c(N)c(S(=O)(=O)O)cc4cc(S(=O)(=O)O)ccc34)c(C)c2)ccc1/N=N/c1c(N)ccc2cc(S(=O)(=O)O)ccc12 [NCI-16224, direct red 34] | –
950 µM | O=C(Nc1ccc2cc(S(=O)(=O)O)ccc2c1)c1ccc([N+](=O)[O-])cc1 [NCI-37169] | –
104 µM | Nc1ccc(C(=O)Nc2cc(S(=O)(=O)O)cc3cccc(O)c23)cc1 [NCI-37176] | –
305 µM | O=[N+]([O-])c1ccc(/N=N/c2c(O)ccc3cc(S(=O)(=O)O)ccc23)cc1 [NCI-45538] | –
307 µM | O=[N+]([O-])c1ccc(/N=N/c2c(O)c(S(=O)(=O)O)cc3cc(S(=O)(=O)O)ccc23)cc1 [NCI-45540] | –
244 µM | O=[N+]([O-])c1cccc(/N=N/c2c(O)c(S(=O)(=O)O)cc3cc(S(=O)(=O)O)ccc23)c1 [NCI-45541] | –
426 µM | O=[N+]([O-])c1ccc(/N=N/c2c(S(=O)(=O)O)cc3cc(S(=O)(=O)O)cc(O)c3c2O)cc1 [NCI-45542] | –
183 µM | Nc1cc(S(=O)(=O)O)cc2cc(S(=O)(=O)O)c(/N=N/c3ccc([N+](=O)[O-])cc3)c(O)c12 [NCI-45550] | –
194 µM | Cc1ccc(/N=N/c2c(N)ccc3cc(S(=O)(=O)O)ccc23)c(C)c1 [NCI-45569] | –
300 µM | CC(=O)Nc1ccc(/N=N/c2ccc(N)c3cc(S(=O)(=O)O)ccc23)cc1 [NCI-45571] | –
75 µM | O=C(Nc1ccc2cc(S(=O)(=O)O)ccc2c1)c1ccc(/N=N/c2cc(S(=O)(=O)O)c3ccccc3c2O)cc1 [NCI-45608] | –
129 µM | O=S(=O)(O)c1ccc(/N=N/c2ccc(/N=N/c3c(O)ccc4cc(S(=O)(=O)O)cc(S(=O)(=O)O)c34)cc2)cc1 [NCI-65546] | –
29 µM | COc1cc(/N=N/c2ccc(S(=O)(=O)O)cc2)ccc1/N=N/c1c(O)ccc2cc(S(=O)(=O)O)ccc12 [NCI-65553] | –
23 µM | Cc1cc(-c2ccc(/N=N/c3c(O)ccc4cc(S(=O)(=O)O)cc(S(=O)(=O)O)c34)c(C)c2)ccc1/N=N/c1c(O)c(S(=O)(=O)O)cc2cc(S(=O)(=O)O)ccc12 [NCI-65568] | –
108 µM | Cc1cc(/N=N/c2ccc(NC(=O)c3ccccc3)c3ccc(S(=O)(=O)O)cc23)ccc1/N=N/c1ccc2c(O)cc(S(=O)(=O)O)cc2c1 [NCI-65844] | –
129 µM | Nc1ccc2cc(S(=O)(=O)O)cc(O)c2c1/N=N/c1ccc(-c2ccc(/N=N/c3c(S(=O)(=O)O)cc4cc(S(=O)(=O)O)c(/N=N/c5ccc([N+](=O)[O-])cc5)c(N)c4c3O)cc2)cc1 [NCI-65855] | –
77 µM | CC(=O)Nc1ccc(/N=N/c2ccc3cc(S(=O)(=O)O)cc(NC(C)=O)c3c2O)cc1 [NCI-73416] | –
76 µM | Nc1c(/N=N/c2cc(Cl)ccc2Cl)c(S(=O)(=O)O)cc2cc(S(=O)(=O)O)c(/N=N/c3ccc(Sc4ccc(/N=N/c5ccc(O)cc5)cc4)cc3)c(O)c12 [NCI-75661] | –
171 µM | Nc1ccc2cc(S(=O)(=O)O)cc(O)c2c1/N=N/c1ccc(-c2ccc(/N=N/c3c(N)ccc4cc(S(=O)(=O)O)cc(O)c34)cc2)cc1 [NCI-75778] | –

The next lines start with the compound.

SMILES | Ki (read-out: KI) | other results
O=S(=O)(O)c1cc(O)c2c(O)c(N=Nc3c(O)c(S(=O)(=O)O)cc4cc(S(=O)(=O)O)cc(O)c34)c(S(=O)(=O)O)cc2c1 | – | Ki (inhibition of ANG-catalyzed cleavage of an RNA oligonucleotide, 20 mM Hepes, 100 mM NaCl, 37° C., read-out: KI): > 1000 µM
O=C(c1ccc(C(=O)O)c(NC(=O)c2cccc3ccccc23)c1)c1ccc(C(=O)O)c(NC(=O)c2cccc3ccccc23)c1 [CB-181431, 4,4′-dicarboxy-3,3′-bis(naphthylamido)-diphenylmethanone] | – | Ki (20 mM Hepes, 100 mM NaCl, pH 7.0, 37° C., read-out: Ki for inhibition of the ribonucleolytic activity of angiogenin): 41 µM
O=S(=O)(O)c1cc(O)c2ccc(Nc3ccc4c(O)cc(S(=O)(=O)O)cc4c3)cc2c1 [NCI-1698] | 172 µM | –
Nc1cccc(C(=O)Nc2ccc3c(O)cc(S(=O)(=O)O)cc3c2)c1 [NCI-1743] | – | KI [1]: in- active at 75 uM
Cc1ccc(/N=N/c2c(O)ccc3cc(S(=O)(=O)O)ccc23)cc1 [NCI-7814] | 175 µM | –
O=S(=O)(O)c1cc(/N=N/c2c(O)ccc3ccccc23)c2c(O)c(/N=N/c3ccc(S(=O)(=O)O)c4ccccc34)c(S(=O)(=O)O)cc2c1 [NCI-8674] | 158 µM | –
O=[N+]([O-])c1ccc(/N=N/c2c(S(=O)(=O)O)cc3cc(S(=O)(=O)O)ccc3c2O)c([N+](=O)[O-])c1 [NCI-9360] | 307 µM | –
COc1cc(-c2ccc(/N=N/c3ccc4c(S(=O)(=O)O)cc(S(=O)(=O)O)c(N)c4c3O)c(OC)c2)ccc1/N=N/c1ccc2c(S(=O)(=O)O)cc(S(=O)(=O)O)c(N)c2c1O [NCI-9617, Chicago Sky Blue 6B] | 5 µM | –
O=C(O)c1ccccc1/N=N/c1c(O)c(S(=O)(=O)O)cc2cc(S(=O)(=O)O)ccc12 [NCI-12455] | 239 µM | –
O=C(Nc1ccc2cc(S(=O)(=O)O)cc(S(=O)(=O)O)c2c1)Nc1ccc2cc(S(=O)(=O)O)cc(S(=O)(=O)O)c2c1 [NCI-12857] | 336 µM | –
Nc1c(OCC(=O)O)ccc2cc(S(=O)(=O)O)ccc12 [NCI-16163] | – | KI [1]: in- active at 75 uM
O=C(Nc1cc(S(=O)(=O)O)cc2cc(S(=O)(=O)O)cc(O)c12)c1ccccc1 [NCI-16169] | – | KI [1]: in- active at 75 uM
COc1ccc(/C=N/c2c(O)ccc3ccccc23)cc1OC [NCI-17061] | 900 µM | –
Nc1ccc(/N=N/c2ccc(/C=C/c3ccc(/N=N/c4ccc(N)c5ccc(S(=O)(=O)O)cc45)cc3S(=O)(=O)O)c(S(=O)(=O)O)c2)c2cc(S(=O)(=O)O)ccc12 [NCI-34933] | 172 µM | –
O=C(O)c1cc(O)c(O)c(OC(=O)c2cc(O)c(O)c(O)c2CNc2ccc3cc(S(=O)(=O)O)cc(S(=O)(=O)O)c3c2)c1 [NCI-42067] | 245 µM | –
O=C(O)c1cc(/N=N/c2ccc(/N=N/c3c(Nc4ccccc4)ccc4cc(S(=O)(=O)O)cc(O)c34)cc2)ccc1O [NCI-45612] | 158 µM | –
Nc1ccc(/N=N/c2ccc(-c3ccc(/N=N/c4ccc(N)c5cc(S(=O)(=O)O)ccc45)cc3)cc2)c2ccc(S(=O)(=O)O)cc12 [NCI-45618] | 15 µM | –
O=C(O)c1c(O)ccc(/N=N/c2ccc(/N=N/c3ccc4c(S(=O)(=O)O)cccc4c3O)c3ccccc23)c1O [NCI-47735] | 85 µM | –
O=[N+]([O-])c1ccc(/N=N/c2c(O)c(/N=N/c3cc([N+](=O)[O-])cc([N+](=O)[O-])c3O)cc(/N=N/c3cc(S(=O)(=O)O)cc4cc(S(=O)(=O)O)cc(O)c34)c2O)cc1 [NCI-47740] | 15 µM | –
COc1cc(/N=N/c2cc(S(=O)(=O)O)cc3cc(S(=O)(=O)O)cc(O)c23)c(C)cc1/N=N/c1c(S(=O)(=O)O)cc2cc(Nc3ccccc3)ccc2c1O [NCI-47755] | 84 µM | –
O=S(=O)(O)c1ccc(/N=N/c2ccc(/N=N/c3c(O)ccc4cc(S(=O)(=O)O)ccc34)cc2)cc1 [NCI-58047] | 36 µM | –
Cc1cc(NC(=O)c2ccc(/N=N/c3c(O)c(S(=O)(=O)O)cc4cc(S(=O)(=O)O)ccc34)cc2)ccc1/N=N/c1ccc2cc(S(=O)(=O)O)cc(S(=O)(=O)O)c2c1 [NCI-65845] | 3 µM | –
Cc1cc(/N=N/c2ccc(/N=N/c3c(O)c(S(=O)(=O)O)cc4cc(S(=O)(=O)O)ccc34)cc2C)ccc1/N=N/c1ccc2cc(S(=O)(=O)O)cc(S(=O)(=O)O)c2c1 [NCI-65847] | 38 µM | –
